Reference: article PMC4581293, “Structure-Based Optimization of Inhibitors of the Aspartic Protease Endothiapepsin” (International Journal of Molecular Sciences, 2015)

Biological target: T1, endothiapepsin (Cryphonectria parasitica, UniProt P11838)
T1 construct: Endothiapepsin was purified from Suparen; purchased DSM Food Specialties, Heerlen, The Netherlands (kindly provided) Suparen
T1 sequence (P11838 90-419): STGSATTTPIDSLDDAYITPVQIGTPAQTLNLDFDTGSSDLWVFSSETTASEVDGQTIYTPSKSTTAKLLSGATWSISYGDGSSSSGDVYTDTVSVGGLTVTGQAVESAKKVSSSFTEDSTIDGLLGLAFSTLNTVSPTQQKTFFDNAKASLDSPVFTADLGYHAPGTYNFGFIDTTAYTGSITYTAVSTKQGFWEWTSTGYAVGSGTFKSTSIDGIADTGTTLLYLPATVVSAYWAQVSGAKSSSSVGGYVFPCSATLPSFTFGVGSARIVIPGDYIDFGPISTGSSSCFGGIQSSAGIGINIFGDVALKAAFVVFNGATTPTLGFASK
Test: Fluorescence-based enzymatic inhibition assay (adapted from the HIV protease assay)
Assay type: biochemical
Conditions: for IC50: 0.4 nM endothiapepsin, 1.8 μM substrate, pH 4.6, 2.1% DMSO, E/Z mixture, duplicate, ± SD; for ΔGexpt, experimental Gibbs free energy of binding: derived from the experimentally determined IC50 values using the Cheng–Prusoff equation; for LE (ligand efficiency): obtained from the IC50 values using the Cheng–Prusoff equation
Text: To determine their inhibitory potency against endothiapepsin, we subjected these acylhydrazone derivatives to a fluorescence-based enzymatic inhibition assay, adapted from the HIV protease assay.
Endothiapepsin was purified from Suparen® (kindly provided by DSM Food Specialties, Heerlen, The Netherlands) by exchanging the buffer to sodium acetate buffer (0.1 M, pH 4.6) using a Vivaspin 500 (Sartorius, Rotterdam, The Netherlands) with a molecular weight cutoff at 10,000 Da.
Stock solutions (100 mM in DMSO) were prepared for acylhydrazones 2–9 (mixture of E/Z isomers). The final reaction volume was 200 μL containing 0.4 nM endothiapepsin, 1.8 μM substrate and 2.1% DMSO. The final concentration of inhibitors was 1000 μM in the first well and subsequent half dilution in next 10 wells. In the same way, blanks were prepared using DMSO instead of the inhibitor stock solutions. As substrate, Abz–Thr–Ile–Nle-p-nitro-Phe–Gln–Arg–NH2 (purchased from Bachem, Bubendorf, Switzerland) was used for the fluorescence screening assay. The assay was performed with flat bottom 96-well microplates (purchased from Greiner Bio-One, Alphen aan den Rijn, The Netherlands) using a Synergy Mx microplate reader at an excitation wavelength of 337 nm and an emission wavelength of 414 nm. […] The assay buffer (0.1 M sodium acetate buffer, pH 4.6, containing 0.001% Tween 20) was premixed with the substrate and inhibitor; endothiapepsin was added directly before the measurement. As the substrate is a fluorogenic substrate, during measurement the fluorescence increased because of substrate hydrolysis by endothiapepsin. The initial slopes of the fluorescence in the acylhydrazone-containing wells were compared to the initial slope of the blanks for data analysis.

Row | SMILES | IC50 [µM] | ΔGexpt, experimental Gibbs free energy of binding [kJ/mol] | LE (ligand efficiency)
1 | N[C@@H](Cc1c[nH]c2ccccc12)C(=O)N/N=C/c1ccc(C(F)(F)F)cc1 [compound 2] | 7 ± 0.5 | -31.3 | 0.28
2 | N[C@@H](Cc1c[nH]c2ccccc12)C(=O)N/N=C/c1cccc(C(F)(F)F)c1 [compound 3] | 244 ± 32 | -22.5 | 0.20
3 | N[C@@H](Cc1c[nH]c2ccccc12)C(=O)N/N=C/c1ccccc1F [compound 4] | 38 ± 7 | -27.1 | 0.27
4 | Cc1cccc(/C=N\NC(=O)[C@@H](N)Cc2c[nH]c3ccccc23)c1O [compound 5] | 36 ± 11 | -27.2 | 0.26
5 | N[C@@H](Cc1c[nH]c2ccccc12)C(=O)N/N=C/c1ccccc1Br [compound 6] | 54.5 ± 0.5 | -26.2 | 0.26
6 | Cc1ccccc1/C=N/NC(=O)[C@@H](N)Cc1c[nH]c2ccccc12 [compound 7] | 59 ± 4 | -26.0 | 0.26
7 | Cc1cccc(C)c1/C=N/NC(=O)[C@@H](N)Cc1c[nH]c2ccccc12 [compound 8] | 30 ± 5 | -27.7 | 0.26
8 | N[C@@H](Cc1c[nH]c2ccccc12)C(=O)N/N=C/c1ccccc1 [compound 9] | – | -26.4 | 0.27
